Literature values, collected in US20050096369A1, “Compositions and methods for treating cellular proliferation disorders” (priority 2003, published 2005).

Columns and labels:
leukemia cells = details: Zhu Ningxi, et al.
[1] = Merck Index
[2] = test system: voltage-gated sodium channel; details: PDR and Zhou, 2003
[3] = not given; remark: listed apart in the source
calcium-channel = details: PDR and Zhou, 2003
[4] = test system: cell lines derived from human malignancies; details: Pizer et al.
[5] = test system: voltage gated calcium channels; details: cultured rat hippocampal neurons; concentration and voltage dependant (Weng et al., 2003)

O=C1CCC[C@@H]2[C@H]3CCCN4CCC[C@@H](CN12)[C@@H]34 [matrine]
effect on leukemia cell differentiation (leukemia cells): could help leukemia cells differentiate into mature and normal white blood cells | water solubility [1]: water soluble | time to excretion by the kidneys (in vivo): ≤ 24 h | stability in the blood (not converted by the liver): stable in the blood

CCOC(=O)C1=C[C@]2(CC)CCCN3CCc4c(n1c1ccccc41)[C@@H]32 [vinpocetine, eburnamenine-14-carboxylic acid ethyl ester]
voltage-gated sodium channel blocking [2]: voltage-gated sodium channel blocking activity | time to peak plasma levels ([3]; after ingestion): one to one and a half | time in which most of a dose is excreted ([3]; excreted in urine as apovincaminic acid): ≤ 24 h | elimination half-life ([3]; following ingestion): one to two | absorption ([3]; given with food): up to 60 % of an ingested dose | absorption of an ingested dose ([3]; on an empty stomach): ≥ 7% | calcium-channel blocking (calcium-channel): calcium-channel blocking activity

C/C=C/C/C=C/CCC(=O)[C@H]1O[C@H]1C(N)=O [cerulenin]
cytotoxicity [4]: selectively cytotoxic to cell lines derived from human malignancies

O=C1CCC[C@@H]2[C@H]3CCC[N+]4([O-])CCC[C@@H](CN12)[C@@H]34 (stereo partly drawn) [oxymatrine]
fate when administered by injection (injection): stable and is excreted as oxymatrine | fate when taken orally (oral): converted to matrine

N=C(N)NCCCCN [Agmatine, agmatine]
effect on voltage gated calcium channels [5]: block voltage gated calcium channels
